Experiments:
[1] = system: M600B cells; assay: Inhibition of M600B cell growth; type: cell-based, human; conditions: FIG. 4
Procedure: (§1) NIH3T3 (mouse embryo) cells were obtained from the American Type Culture Collection and were grown in Dulbecco's modified Eagle's medium supplemented with 10% calf serum. M600B immortalized human mammary epithelial cells (Stampfer, M. R., 1985, J. Tissue Culture Methods 9: 107-115) were obtained from Dr. Martha Stampfer and were grown in supplemented HCDB 170 medium (Hammond, et al. (1984) Proc. Natl. Acad. Sci U.S.A. 81: 5435-5439), as described previously (Stampfer, et al. (1985) Proc. Natl. Acad. Sci U.S.A. 82: 2394-2398; Eldridge, et al. (1989) Cancer Res. 49: 4326-4331).
(§2) All cells were maintained in 100-mm dishes at 37° C. in a humidified 5% CO2 atmosphere. Viable cells were distinguished from nonviable cells by counting azure II/methylene blue-stained colonies 10 days after the cells were plated at a density of 100 cells per dish. Trypan blue exclusion was measured by incubating cells for 1 minute with one drop of trypan blue per 10 ml of cells. Viable (colorless) and nonviable (blue) cells were then counted on a hemocytometer.
(§3) Additionally, growth of HT29 (human colon adenocarcinoma) cells was inhibited by 80% by 1 mM perillyl alcohol.

[2] = system: isoprenylation of 21-26 kDa proteins in M600B cells; assay: Protein isoprenylation in M600B human mammary epithelial cells; type: cell-based
[3] = system: NIH3T3 cells; assay: Inhibition of NIH3T3 cell growth; type: cell-based, mouse; conditions: FIG. 3
Procedure: as §1, §2, §3

[4] = system: nontransformed FDC-P1 cells; assay: Proliferation of nontransformed FDC-P1 myeloid cells; type: cell-based, murine; conditions: up to 800 μM; FIG. 9A
Procedure: (§4) (The p210 bcr/abl oncogene is carried on a helper-free retrovirus referred to as "p210.") FDC-P1 myeloid cells are an immature cell line from myeloid lineage derived from mouse bone marrow (Dexter, TM, J. Exp. Med. 152: 1036-1047, 1980).

[5] = system: mammary, lung, and stomach cancers; conditions: literature; cited from earlier work
[6] = cited from earlier work
[7] = system: DMBA-induced rat mammary carcinomas; assay: Pair-feeding study: regression and inhibition of DMBA-induced mammary carcinomas in rats; type: in vivo, Wistar-Furth female rats
Procedure: We used Wistar-Furth female rats for in vivo studies. Wistar-Furth female rats were obtained from Harlan Sprague-Dawley, Inc., (Madison, Wis.). […] Rates were provided Teklad Lab blox chow and acidified water ad libitum.
The DMBA was dissolved in a stock solution of 20 mg DMBA/ml sesame oil, heated and allowed to cool to room temperature before administration. DMBA (Eastman Kodak, Rochester, N.Y.) was given as a single gastric intubation of 50 mg DMBA/kg rat body weight.
In the pair-feeding study, a group of 70 mammals was treated with DMBA. Beginning four weeks post-carcinogen administration, mammals were weighed and palpated weekly.
Fresh diets were make every 7-10 days. All mammals were provided fresh diet daily to minimize evaporation of the monoterpenes.
In a pair-feeding study, all palpable mammary tumors were classified as either "primary" tumors (i.e., the first tumor(s) palpated with a minimum diameter of 3 mm) or "secondary" tumors (i.e. a palpable tumor arising after initial diet assignment). […] All carcinogen-exposed mammals not bearing a first palpable tumor by week 15 post-carcinogen were removed from the experiment. Complete regression of a tumor was defined as non-palpability for a minimum of three consecutive weeks. All mammals in the pair-feeding study were followed for a minimum of 10 weeks post-diet assignment for tumor growth or regression at primary tumor sites and all other mammary glands. The rats were necropsied if moribund. Complete necropsies were performed on all rats at the termination of the study.

[8] = system: isoprenylation of 21-26 kDa proteins in NIH3T3 (mouse embryo) cells; assay: Protein isoprenylation in NIH3T3 cells (21-26 kDa bands, SDS-PAGE fluorography); type: cell-based
Procedure: NIH3T3 (mouse embryo) cells were obtained from the American Type Culture Collection and were grown in Dulbecco's modified Eagle's medium supplemented with 10% calf serum. […] Because they carried a radioactive label, isoprenylated proteins were visualized by fluorography. As a control, cells were incubated without the monoterpene. […] Whole cell extracts were analyzed by SDS-PAGE on 16-cm×18-cm×0.75-mm gels by the method of Laemmli (supra). […] Gels were stained with Coomassie Brilliant Blue, equilibrated for 20 minutes in Amplify (Amersham Corp.) fluorographic reagent, dried under vacuum at 65° C., and exposed to […] Some fluorograms were analyzed further by densitometry. […] Protein content was measured by the method of Lowry, et al. […] FIG. 1 depicts the structures of these monoterpenes.

[9] = system: p210-transformed FDC-P1 cells; assay: Proliferation of p210 bcr/abl-transformed FDC-P1 myeloid cells; type: cell-based, murine; conditions: up to 800 μM; FIG. 9A
Procedure: as §4

C=C(C)[C@@H]1CC=C(C(=O)O)CC1 [Perillic acid, reference compound]
inhibition of cell growth [1]: significantly inhibited cell growth in a dose-dependent manner | isoprenylation of 21-26 kDa proteins ([2]; 5 mM, FIG. 2): inhibited significantly | inhibition of isoprenylation ([2]; all cell types examined): inhibition of isoprenylation | inhibition of cell growth [3]: significantly inhibited cell growth in a dose-dependent manner

C=C(C)[C@H]1CC=C(C)CC1 [limonene, d-Limonene]
effect on proliferation [4]: no effect | activity against mammary, lung, and stomach cancers [5]: reported to have activity against mammary | toxicity to humans ([6]; at the required usage levels): not toxic to humans | side-effects ([6]; particularly when a large dose is required in a short period): not without some side-effects | number of secondary tumors compared with perillyl alcohol-fed mammals ([7]; 10% limonene diet versus 2.5% perillyl alcohol diet): higher | Time to Regress ([7]; 10% limonene diet, Kaplan-Meier estimate of time when 25% of tumors will have regressed, p < 0.01, pair-fed control 14.5): 3.25 wks | Primary Tumor Regression (tumors regressed / tumors) ([7]; 10% limonene diet, complete regression, p < 0.01 vs controls): 19/28 | Primary Tumor Regression (%) ([7]; 10% limonene diet, complete regression, pair-fed control 23%): 68% | Number of Secondary Tumors/Rat ([7]; 10% limonene diet, p < 0.01, pair-fed control 1.92): 1.08 | Secondary Tumor Regression (tumors regressed / tumors) ([7]; 10% limonene diet, p < 0.01, pair-fed control 9/48): 17/27 | Secondary Tumor Regression (%) ([7]; 10% limonene diet, pair-fed control 19%): 63% | intensity of the 21-26 kDa bands ([2]; 5 mM limonene): marked decrease in the intensity of the 21-26 kDa bands | minimal effective concentration ([2]; Homo sapiens, Epithelial cell, dose responsive, read-out: concentration required for significant inhibition of protein isoprenylation): ≥ 1000 µM | intensity of the 21-26-kDa bands ([8]; 0.5 mM or 5 mM, fluorography): dose-responsive decrease in intensity | intensity of the 66-, 46-, and 17-kDa bands ([8]; 0.5 mM or 5 mM, fluorography): not different from that of the control | activity at 500 µM ([8]; Mus musculus, NIH3T3, 0.5 mM, slicing and scintillation counting, as reported in Crowell et al. (own work), read-out: isoprenylation of the 21-26-kDa bands remaining, of the control): ~50% | activity at 5000 µM ([8]; Mus musculus, NIH3T3, 5 mM, slicing and scintillation counting, as reported in Crowell et al. (own work), read-out: isoprenylation of the 21-26-kDa bands remaining, of the control): ~25% | spot at the dye front ([8]; fluorography): reduced with maximal inhibition at 5 mM | effect on proliferation [9]: no effect

Reference: patent US5587402A, “Regression of mammalian leukemia cell tumors” (priority 1995, dated 1996)
